27 molecules from patent US9556158B2, “Fungicidal 3-[(pyridin-2-ylmethoxyimino)(phenyl)methyl]-2-substituted-1,2,4-oxadiazol-5(2H)-one derivatives” (BAYER INTELLECTUAL PROPERTY GMBH, priority 2011, dated 2017) can be followed below.

For the data set the following is noted: pH 2.7, LogP, HPLC on reversed phase columns, pH 2.7, 0.1% formic acid in water / acetonitrile gradient.
Setting [1] is: compounds of formula (V), Table 2.

Read-outs that look alike come from different tables or passages of the source.

As usually defined, the chromatographic logP is a lipophilicity value derived from retention on a column. A lower chromatographic logP goes with lower lipophilicity.

Method: Measurement of log P values was performed according EEC directive 79/831 Annex V.A8 by HPLC (High Performance Liquid Chromatography) on reversed phase columns with the following method:
Measurement of LC-MS was done at pH 2.7 with 0.1% formic acid in water and with acetonitrile (contains 0.1% formic acid) as eluent with a linear gradient from 10% acetonitrile to 95% acetonitrile.
Calibration was done with not branched alkan2-ones (with 3 to 16 carbon atoms) with known log P-values (measurement of log P values using retention times with linear interpolation between successive alkanones). lambda-maX-values were determined using UV-spectra from 200 nm to 400 nm and the peak values of the chromatographic signals.

Molecule `Cn1oc(=O)nc1C(=NOCc1cccc(NC(=O)CCC2CCCCC2)n1)c1ccccc1` [Example 147] gave a chromatographic logP of 4.06.
With `CC(C)N(O)C(=N)C(=NOCc1cccc(NC(=O)OC(C)(C)C)n1)c1ccccc1` [Example V-09], under setting [1], the chromatographic logP came out at 2.05.
The molecule `CC#CCCOC(=O)Nc1cccc(CON=C(c2ccccc2)c2nc(=O)on2C)n1` [Example 156] returned a chromatographic logP of 3.
For `CC#CCC(C)OC(=O)Nc1cccc(CON=C(c2ccccc2)c2nc(=O)on2C)n1` (stereo not drawn) [Example 151], the chromatographic logP was found to be 3.31.
For the molecule `C#CCOC(=O)Nc1cccc(CON=C(c2ccccc2)c2nc(=O)on2C)n1` [Example 131], the chromatographic logP was determined as 2.57.
On to `CC(Oc1ccccc1)C(=O)Nc1cccc(CON=C(c2ccccc2)c2nc(=O)on2C)n1` (stereo not drawn) [Example 140], for which the chromatographic logP worked out at 3.35.
For `COc1ccc(OC(=O)Nc2cccc(CON=C(c3ccccc3)c3nc(=O)on3C)n2)cc1` [Example 185], the chromatographic logP worked out at 3.15.
`Cn1oc(=O)nc1C(=NOCc1cccc(NC(=O)C2(C)CCCCC2)n1)c1ccccc1` [Example 136] had a chromatographic logP of 3.68.
Turning to `CCCCCCC(=O)Nc1cccc(CON=C(c2ccccc2)c2nc(=O)on2C)n1` [Example 120], the chromatographic logP stood at 3.65.
Under setting [1], `CN(O)C(=N)C(=NOCc1cccc(N)n1)c1ccccc1` [Example V-03] yielded a chromatographic logP of 0.22.
Regarding `COc1cccc(C(=NOCc2cccc(NC(=O)c3cccc(C)c3)n2)c2nc(=O)o[nH]2)c1` [Example 61], the chromatographic logP was determined as 3.31.
`Cn1oc(=O)nc1C(=NOCc1cccc(N)n1)c1cccc(F)c1F` [Example 192] showed a chromatographic logP of 0.96.
Molecule `Cn1oc(=O)nc1C(=NOCc1cccc(NC(=O)OC(C)(C)C)n1)c1cccc(F)c1F` [Example 113] registered a chromatographic logP of 3.39.
Molecule `Cc1cccc(C(=NOCc2cccc(NC(=O)OCCC(C)C)n2)c2nc(=O)on2C)c1` [Example 91] gave a chromatographic logP of 4.03.
On to `Cn1oc(=O)nc1C(=NOCc1cccc(NC(=O)OCCC2CCCCC2)n1)c1ccccc1` [Example 158], for which the chromatographic logP was determined as 4.63.
With `C#CCCCC(=O)Nc1cccc(CON=C(c2ccccc2)c2nc(=O)on2C)n1` [Example 149], the chromatographic logP amounted to 2.6.
`COCCN(O)C(=N)C(=NOCc1cccc(NC(=O)OC(C)(C)C)n1)c1ccccc1` [Example V-07]: the chromatographic logP under setting [1] came to 1.93.
As for `Cn1oc(=O)nc1C(=NOCc1cccc(NC(=O)c2ccc(F)cc2)n1)c1cccc(F)c1` [Example 92], the chromatographic logP is 3.15.
`Cn1oc(=O)nc1C(=NOCc1cccc(NC(=O)OCCC2CC2)n1)c1ccccc1` [Example 138] showed a chromatographic logP of 3.39.
On to `CN(O)C(=N)/C(=N\OCc1cccc(NC(=O)OC(C)(C)C)n1)c1ccccc1` [Example V-02, tert-butyl (6-{[({(1Z)-2-[hydroxy(methyl)amino]-2-imino-1-phenylethylidene}amino)oxy]methyl}pyridin-2-yl)carbamate], for which the chromatographic logP under setting [1] was found to be 1.81.
Consider `COc1cccc(C(=NOCc2cccc(NC(=O)CCc3ccccc3)n2)c2nc(=O)on2C)c1` [Example 164], for which the chromatographic logP turned out to be 3.27.
In turn, `C=CCCCOC(=O)Nc1cccc(CON=C(c2ccccc2)c2nc(=O)on2C)n1` [Example 129] showed a chromatographic logP of 3.41.
Regarding `CCn1oc(=O)nc1C(=NOCc1cccc(N)n1)c1ccccc1` [Example 111], the chromatographic logP came out at 1.07.
`Cn1oc(=O)nc1C(=NOCc1cccc(NC(=O)OCCc2ccccc2)n1)c1cccc(F)c1F` [Example 190] yielded a chromatographic logP of 3.62.
Take `Cn1oc(=O)nc1C(=NOCc1cccc(NC(=O)CCC2CCCC2)n1)c1ccccc1` [Example 145]: the chromatographic logP amounted to 3.72.
For `COc1cccc(C(=NOCc2cccc(N)n2)c2nc(=O)on2C)c1` [Example 24], the chromatographic logP was determined as 1.03.
For the molecule `C#CCOC(=O)Nc1cccc(CON=C(c2cccc(C)c2)c2nc(=O)on2C)n1` [Example 108], the chromatographic logP was 2.84.
